Measurements published in patent US20260209242A1, “CAMPTOTHECIN DERIVATIVE, PHARMACEUTICAL COMPOSITION, AND PREPARATION METHOD AND USE THEREFOR” (priority 2022, published 2026).
Values after ≈ are worked out from the molar mass of the structure shown. Read-outs that look alike come from different tables or passages of the source.

Tests used:
[1] = Stability of compounds in human plasma; assay type: in vitro ADME; conditions: 5 μmol/L
[2] = Pharmacokinetic test in SD rats; conditions: male, Sprague-Dawley (SD), rat, in vivo, iv, 2 mg/kg
Protocol: After a single intravenous injection (dose: 2 mpk) of the compounds 6-2, 11-2, 17-2, and Dxd into male SD rats (blood collection time points: 0.083 h, 0.25 h, 0.5 h, 1 h, 2 h, 4 h, 8 h, and 24 h after IV administration, totaling 8 blood collection time points), average pharmacokinetic parameters in the plasma are as shown in Table 5: […]

[3] = Stability of compounds in human plasma; assay type: in vitro ADME; conditions: for Residual percentage (%) 1 h / Residual percentage (%) 2 h / Residual percentage (%) 6 h / Residual percentage (%) 24 h: 5 μmol/L
Protocol: • (1) 199 μL of human plasma was added to the culture plate of each cell. The culture plate was preheated to 37° C., and kept at this temperature for 15 min. • (2) After preincubation, 1 μL of 1 mmol/L each test compound and 1 μL of 1 mmol/L control compound were added to 199 μL of plasma, so that a final concentration of each test compound was 5 μmol/L and that of the control compound was 5 gmol/L. The final concentration of the organic solvent was 0.5%. The experiment would be duplicated twice. • (3) Reaction samples were incubated at 37° C. • (4) The reaction was stopped by adding 600 μL of cold methanol containing the internal standard at 0, 1, 2, 6, and 24 h. Each sample was vortex mixed for 10 min, and then centrifuged at 3,220 g for 30 min to precipitate the protein. […] Based on the signal response and peak shapes of liquid chromatography-mass spectrometry (LC-MS), the supernatant would be diluted with ultrapure water.
All calculations were performed using Microsoft Excel. The peak area ratio was determined from the chromatogram of extracted ions. The percentage of compounds remaining at each time point was calculated as per the following formula: […]

CYP1A2 = target: T1, CYP1A2 (Homo sapiens, UniProt P05177); test: Inhibition on human hepatomicrosomes CYP1A2
T1 sequence (P05177 1-516): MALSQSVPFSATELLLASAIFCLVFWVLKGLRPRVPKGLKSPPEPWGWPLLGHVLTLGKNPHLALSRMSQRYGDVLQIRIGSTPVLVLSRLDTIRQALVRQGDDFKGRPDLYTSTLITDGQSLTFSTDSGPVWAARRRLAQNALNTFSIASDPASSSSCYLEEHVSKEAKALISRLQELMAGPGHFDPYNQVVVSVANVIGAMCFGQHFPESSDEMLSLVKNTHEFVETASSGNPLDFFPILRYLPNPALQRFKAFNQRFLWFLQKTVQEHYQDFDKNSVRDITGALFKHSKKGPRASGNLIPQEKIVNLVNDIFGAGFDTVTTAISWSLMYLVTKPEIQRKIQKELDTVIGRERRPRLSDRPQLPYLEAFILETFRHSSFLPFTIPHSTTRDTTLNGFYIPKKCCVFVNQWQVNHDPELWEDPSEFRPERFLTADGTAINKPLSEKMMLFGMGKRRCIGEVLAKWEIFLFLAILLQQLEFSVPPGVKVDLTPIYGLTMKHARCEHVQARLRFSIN

CYP3A4 = target: T2, CYP3A4 (Homo sapiens, UniProt P08684); test: Inhibition on human hepatomicrosomes CYP3A4; assay type: in vitro ADME
T2 construct: from tissue; host or cells: human liver microsomes

CYP2D6 = CYP2D6 (Homo sapiens, UniProt P10635); test: Inhibition on human hepatomicrosomes CYP2D6
[4] = Kinetic solubility test in PBS 7.4; assay type: physicochemical; conditions: for solubility at 2 h: 25 °C, pH 7.4, aqueous buffer, kinetic from dmso stock
Protocol: 10 mM stock solutions of the test substances 6-2, 11-2, 17-2, Dxd, and the control drugs progesterone and diclofenac were prepared using DMSO respectively.
15 μL of 10 mM stock solution of each of the test substances was added to a corresponding position of a corresponding 96-well plate in a specified sequence. 485 μL of the PBS 7.4 was added to a corresponding vial on a sample plate. The experiment was run in duplicate. Each vial was additionally provided with a stirring rod and was plugged. Then, the sample plate was transferred in a thermostatic mixer, and oscillated at a revolving speed of 1,100 rpm at 25° C. for 2 h. 2 h later, the plug was removed, the stirring rod was attracted away with a large magnet, and then the sample was transferred from the sample plate to the filter plate. Negative pressure was generated using a vacuum pump to filter the sample. 5 μL of filtrate and 5 μL of blank DMSO were transferred to another sample plate, and then 490 μL of internal standard water (acetonitrile:water=1:1) containing the internal standard was added. Depending on peak shapes, a certain proportion of internal standard water may be used to dilute the sample diluent to obtain better peak shapes.
6 μL was transferred from the 10 mM DMSO stock solution plate to a blank plate, and was prepared into a 300 μM standard substance solution with addition of 194 μL of DMSO. 5 μL was transferred from the 300 μM standard substance solution plate to still another blank plate, and then 5 μL of blank buffer and 490 μL of the internal standard water containing the internal standard (acetonitrile:water=1:1) were added until a final concentration of the standard substance solution was 3 μM.
An injection plate was transferred on an injection tray of an autosampler to evaluate the sample by LC/MS analysis.
All calculations were performed using Microsoft Excel.
The sample filtrate was analyzed and quantified by qualitative and quantitative LC/MS of standard substance peaks at known concentrations. The calculation formula for the solubility values of the reference drugs and the test substances are as follows:
[Sample] is the compound concentration, DFSample refers to the sample dilution factor, [STD] is the standard substance concentration of the compound, AREAStd is the standard substance peak area of the compound, and AREASample is the peak area of the compound sample.

[5] = read-out: 3A4M (IC50 μM), human hepatomicrosomes, substrate midazolam

T2 sequence (P08684 whole entry): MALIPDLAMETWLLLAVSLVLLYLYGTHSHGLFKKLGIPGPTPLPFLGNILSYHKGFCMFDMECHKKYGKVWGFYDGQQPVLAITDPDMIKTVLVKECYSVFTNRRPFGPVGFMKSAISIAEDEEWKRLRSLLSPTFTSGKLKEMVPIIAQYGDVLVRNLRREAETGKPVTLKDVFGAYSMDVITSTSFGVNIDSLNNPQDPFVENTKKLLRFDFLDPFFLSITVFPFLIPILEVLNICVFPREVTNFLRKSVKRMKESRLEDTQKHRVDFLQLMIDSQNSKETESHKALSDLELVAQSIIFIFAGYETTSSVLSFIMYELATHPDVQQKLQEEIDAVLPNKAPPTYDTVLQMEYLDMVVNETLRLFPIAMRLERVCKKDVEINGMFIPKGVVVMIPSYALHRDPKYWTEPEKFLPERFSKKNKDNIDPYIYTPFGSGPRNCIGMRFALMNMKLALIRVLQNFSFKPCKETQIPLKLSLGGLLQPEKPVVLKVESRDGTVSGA
Sequence of CYP2D6 (P10635 whole entry): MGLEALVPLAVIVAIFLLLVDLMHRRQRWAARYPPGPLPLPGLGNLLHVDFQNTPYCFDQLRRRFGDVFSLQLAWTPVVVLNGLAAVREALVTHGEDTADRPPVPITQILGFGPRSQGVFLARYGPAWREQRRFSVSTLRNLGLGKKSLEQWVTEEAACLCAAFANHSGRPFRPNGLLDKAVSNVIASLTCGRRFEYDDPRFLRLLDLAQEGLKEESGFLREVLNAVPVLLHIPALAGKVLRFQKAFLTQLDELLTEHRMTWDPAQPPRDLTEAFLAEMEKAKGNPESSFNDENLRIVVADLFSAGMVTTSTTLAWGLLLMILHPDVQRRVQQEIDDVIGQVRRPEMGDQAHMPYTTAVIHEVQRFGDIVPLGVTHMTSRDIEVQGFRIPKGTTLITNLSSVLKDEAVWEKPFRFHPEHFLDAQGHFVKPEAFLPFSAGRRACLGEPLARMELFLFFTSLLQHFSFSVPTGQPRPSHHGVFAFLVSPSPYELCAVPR

Structure (SMILES) | Residual percentage (%) 4 h [1] [%] | AUC(0-inf) [2] [ng·h/mL] | AUC(0-t) [2] [ng·h/mL] | C0 [2] [ng/mL] | Vd [2] [L/kg] | clearance [2] [mL/min/kg] | half-life [2] [h] | Residual percentage (%) 1 h [3] [%] | Residual percentage (%) 2 h [3] [%] | Residual percentage (%) 6 h [3] [%] | Residual percentage (%) 24 h [3] [%] | stability in human plasma (in words) [3] | IC50 (CYP1A2) [µM] | IC50 (CYP3A4) [µM] | IC50 (CYP3A4; [5]) [µM] | IC50 (CYP2D6) [µM] | solubility in the PBS 7.4 compared with Dxd (in words) [4] | solubility at 2 h [4] [µM]
CC[C@@]1(O)C(=O)OCc2c1cc1n(c2=O)Cc2c-1nc1cc(F)c(C)c3c1c2C(NC(=O)C[C@@H](C)O)CCC3 (single isomer, unassigned) [Compound 6-2] | 93.65 | 318 | 314 | 677 | 2.93 | 108 | 0.39 | 96.62 | 86.16 | 88.99 | 87.01 | good stability in human plasma | > 30 | > 30 | > 30 | > 30 | significantly better solubility in the PBS 7.4 than Dxd | 170 (≈ 91 µg/mL)
CC[C@@]1(O)C(=O)OCc2c1cc1n(c2=O)Cc2c-1nc1cc(F)c(C3CC3)c3c1c2C(NC(=O)C[C@@H](C)O)CC3 (single isomer, unassigned) [Compound 17-2] | 93.75 | 2730 | 2250 | 2690 | 1.4 | 12.3 | 1.64 | 90.07 | 89.34 | 97.06 | 102.21 | good stability in human plasma | > 30 | > 30 | > 30 | > 30 | – | 1.7 (≈ 0.931 µg/mL)
